Tests used:
Assay type in all cases: functional
[1] = tested on: HCC 2998; experiment: Cytotoxicity against human HCC2998 cells assessed as growth inhibition after 48 hrs by sulforhodamine B assay; details: HCC 2998, 48 h
[2] = tested on: SW-620; experiment: Cytotoxicity against human SW620 cells assessed as growth inhibition after 48 hrs by sulforhodamine B assay; details: SW-620, 48 h
[3] = tested on: LOX IMVI; experiment: Cytotoxicity against human LOXIMVI cells assessed as growth inhibition after 48 hrs by sulforhodamine B assay
[4] = tested on: MDA-MB-435; experiment: Cytotoxicity against human MDA-MB-435 cells assessed as growth inhibition after 48 hrs by sulforhodamine B assay; details: MDA-MB-435, 48 h
[5] = tested on: NCI/ADR-RES; experiment: Cytotoxicity against human NCI/ADR-RES cells assessed as growth inhibition after 48 hrs by sulforhodamine B assay
[6] = tested on: A498; experiment: Cytotoxicity against human A498 cells assessed as growth inhibition after 48 hrs by sulforhodamine B assay; details: A498, 48 h
[7] = tested on: SN12C; experiment: Cytotoxicity against human SN12C cells assessed as growth inhibition after 48 hrs by sulforhodamine B assay
[8] = tested on: MCF7; experiment: Cytotoxicity against human MCF7 cells assessed as growth inhibition after 48 hrs by sulforhodamine B assay; details: MCF7, 48 h
[9] = tested on: Hs-578T; experiment: Cytotoxicity against human Hs 578T cells assessed as growth inhibition after 48 hrs by sulforhodamine B assay
[10] = tested on: T47D; experiment: Cytotoxicity against human T47D cells assessed as growth inhibition after 48 hrs by sulforhodamine B assay
[11] = tested on: OVCAR-4; experiment: Cytotoxicity against human OVCAR4 cells assessed as cell growth at 0.01 uM after 48 hrs by sulforhodamine B assay relative to control; details: OVCAR-4, 48 h, read-out: Activity
[12] = tested on: HCT-116; experiment: Cytotoxicity against human HCT116 cells assessed as cell growth at 0.01 uM after 48 hrs by sulforhodamine B assay relative to control; details: HCT-116, 48 h, read-out: Activity
[13] = tested on: HOP-62; experiment: Cytotoxicity against human HOP62 cells assessed as cell growth at 0.01 uM after 48 hrs by sulforhodamine B assay relative to control; details: HOP-62, 48 h, read-out: Activity
[14] = tested on: SN12C; experiment: Cytotoxicity against human SN12C cells assessed as cell growth at 0.01 uM after 48 hrs by sulforhodamine B assay relative to control; details: read-out: Activity
[15] = tested on: MDA-MB-231; experiment: Cytotoxicity against human MDA-MB-231 cells assessed as cell growth at 0.01 uM after 48 hrs by sulforhodamine B assay relative to control; details: MDA-MB-231, 48 h, read-out: Activity
[16] = tested on: CCRF-CEM; experiment: Cytotoxicity against human CCRF-CEM cells assessed as cell growth at 0.1 uM after 48 hrs by sulforhodamine B assay relative to control; details: read-out: Activity
[17] = tested on: NCI-H322M; experiment: Cytotoxicity against human NCI-H322M cells assessed as cell growth at 0.1 uM after 48 hrs by sulforhodamine B assay relative to control; details: read-out: Activity
[18] = tested on: SNB-19; experiment: Cytotoxicity against human SNB19 cells assessed as cell growth at 0.1 uM after 48 hrs by sulforhodamine B assay relative to control; details: SNB-19, 48 h, read-out: Activity
[19] = tested on: A498; experiment: Cytotoxicity against human A498 cells assessed as cell growth at 0.1 uM after 48 hrs by sulforhodamine B assay relative to control; details: A498, 48 h, read-out: Activity
[20] = tested on: HOP-62; experiment: Cytotoxicity against human HOP62 cells assessed as cell growth at 1 uM after 48 hrs by sulforhodamine B assay relative to control; details: HOP-62, 48 h, read-out: Activity
[21] = tested on: NCI-H226; experiment: Cytotoxicity against human NCI-H226 cells assessed as cell growth at 1 uM after 48 hrs by sulforhodamine B assay relative to control; details: NCI-H226, 48 h, read-out: Activity
[22] = tested on: HCC 2998; experiment: Cytotoxicity against human HCC2998 cells assessed as cell growth at 1 uM after 48 hrs by sulforhodamine B assay relative to control; details: HCC 2998, 48 h, read-out: Activity
[23] = tested on: OVCAR-5; experiment: Cytotoxicity against human OVCAR5 cells assessed as cell growth at 1 uM after 48 hrs by sulforhodamine B assay relative to control; details: OVCAR-5, 48 h, read-out: Activity
[24] = tested on: NCI/ADR-RES; experiment: Cytotoxicity against human NCI/ADR-RES cells assessed as cell growth at 1 uM after 48 hrs by sulforhodamine B assay relative to control; details: read-out: Activity
[25] = tested on: PC-3; experiment: Cytotoxicity against human PC3 cells assessed as cell growth at 1 uM after 48 hrs by sulforhodamine B assay relative to control; details: PC-3, 48 h, read-out: Activity
[26] = tested on: T47D; experiment: Cytotoxicity against human T47D cells assessed as cell growth at 1 uM after 48 hrs by sulforhodamine B assay relative to control; details: read-out: Activity
[27] = tested on: HCT-116; experiment: Cytotoxicity against human HCT116 cells assessed as cell growth at 10 uM after 48 hrs by sulforhodamine B assay relative to control; details: HCT-116, 48 h, read-out: Activity
[28] = tested on: HCT-15; experiment: Cytotoxicity against human HCT15 cells assessed as cell growth at 10 uM after 48 hrs by sulforhodamine B assay relative to control; details: HCT-15, 48 h, read-out: Activity
[29] = tested on: SW-620; experiment: Cytotoxicity against human SW620 cells assessed as cell growth at 10 uM after 48 hrs by sulforhodamine B assay relative to control; details: SW-620, 48 h, read-out: Activity
[30] = tested on: SK-MEL-5; experiment: Cytotoxicity against human SK-MEL-5 cells assessed as cell growth at 10 uM after 48 hrs by sulforhodamine B assay relative to control; details: SK-MEL-5, 48 h, read-out: Activity
[31] = tested on: 786-0; experiment: Cytotoxicity against human 786-0 cells assessed as cell growth at 10 uM after 48 hrs by sulforhodamine B assay relative to control; details: 786-0, 48 h, read-out: Activity
[32] = tested on: NCI-H322M; experiment: Cytotoxicity against human NCI-H322M cells assessed as cell growth at 100 uM after 48 hrs by sulforhodamine B assay relative to control; details: read-out: Activity
[33] = tested on: HCT-15; experiment: Cytotoxicity against human HCT15 cells assessed as cell growth at 100 uM after 48 hrs by sulforhodamine B assay relative to control; details: HCT-15, 48 h, read-out: Activity
[34] = tested on: UACC-62; experiment: Cytotoxicity against human UACC62 cells assessed as cell growth at 100 uM after 48 hrs by sulforhodamine B assay relative to control; details: UACC-62, 48 h, read-out: Activity
[35] = tested on: A498; experiment: Cytotoxicity against human A498 cells assessed as cell growth at 100 uM after 48 hrs by sulforhodamine B assay relative to control; details: A498, 48 h, read-out: Activity
[36] = tested on: MCF7; experiment: Cytotoxicity against human MCF7 cells assessed as cell growth at 100 uM after 48 hrs by sulforhodamine B assay relative to control; details: MCF7, 48 h, read-out: Activity
[37] = tested on: Hs-578T; experiment: Cytotoxicity against human Hs 578T cells assessed as cell growth at 100 uM after 48 hrs by sulforhodamine B assay relative to control; details: read-out: Activity

COc1ccc(C(=O)/C=C/c2cc(-c3cc(OC)c(OC)c(OC)c3)n[nH]2)cc1OC
LC50 [1]: 6.7 µM
TGI [1]: 3.78 µM
LC50 (lethal concentration, 50% net cell kill) [2]: 6.55 µM
TGI [2]: 2.99 µM
LC50 [3]: 5.53 µM
TGI [3]: 2.76 µM
LC50 [4]: 5.52 µM
TGI [4]: 2.71 µM
LC50 [5]: > 100 µM
TGI [5]: 15.7 µM
LC50 [6]: 6 µM
TGI [6]: 2.98 µM
LC50 [7]: 6.37 µM
TGI [7]: 3.13 µM
LC50 [8]: 5.72 µM
TGI [8]: 1.95 µM
LC50 [9]: > 100 µM
TGI [9]: 8.2 µM
LC50 [10]: > 100 µM
TGI [10]: 4.36 µM
growth at 0.01 µM [11]: 95%
growth at 0.01 µM [12]: 99%
growth at 0.01 µM [13]: 101%
growth at 0.01 µM [14]: 99%
growth at 0.01 µM [15]: 104%
growth at 0.1 µM [16]: 94%
growth at 0.1 µM [17]: 101%
growth at 0.1 µM [18]: 93%
growth at 0.1 µM [19]: 86%
growth at 1 µM [20]: 77%
growth at 1 µM [21]: 89%
growth at 1 µM [22]: 116%
growth at 1 µM [23]: 86%
growth at 1 µM [24]: 90%
growth at 1 µM [25]: 71%
growth at 1 µM [26]: 75%
growth at 10 µM [27]: -65%
growth at 10 µM [28]: -78%
growth at 10 µM [29]: -77%
growth at 10 µM [30]: -98%
growth at 10 µM [31]: -88%
growth at 100 µM [32]: -90%
growth at 100 µM [33]: -60%
growth at 100 µM [34]: -93%
growth at 100 µM [35]: -96%
growth at 100 µM [36]: -66%
growth at 100 µM [37]: -15%
